Inconclusive results and toxic doses are left out.
Test system: CD2F1 mice, L1210 leukemia ip, survival T/C
Assay: NCI In Vivo Anticancer Drug Screen. Data for tumor model L1210 Leukemia (intraperitoneal) in CD2F1 (CDF1) mice
Settings: endpoint: mean survival time, higher = longer survival
Summary of the method: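 Read-out first: treated-group measurement over vehicle-control measurement, expressed as a ratio. Animals bore a transplanted tumor line and were dosed with compound or vehicle.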

[1] = dose: 100.0 mg/kg/injection, schedule: Q01DX009 (ip), vehicle: saline with Tween-80
[2] = dose: 400.0 mg/kg/injection, schedule: Q01DX009 (ip), vehicle: saline with Tween-80
[3] = dose: 100.0 mg/kg/injection, schedule: Q04DX003 (ip), vehicle: saline with Tween-80
[4] = dose: 200.0 mg/kg/injection, schedule: Q01DX009 (ip), vehicle: saline with Tween-80
[5] = dose: 200.0 mg/kg/injection, schedule: Q04DX003 (ip), vehicle: saline with Tween-80
[6] = dose: 400.0 mg/kg/injection, schedule: Q04DX003 (ip), vehicle: saline with Tween-80
[7] = dose: 100.0 mg/kg/injection, schedule: Q04DX003 (ip), vehicle: saline
[8] = dose: 200.0 mg/kg/injection, schedule: Q04DX003 (ip), vehicle: saline

How did the T/C (dose: 100.0 mg/kg/injection, schedule: Q04DX002 (ip), vehicle: saline with Tween-80) turn out when CCOC(=O)C(C#N)c1ccccc1 (stereo not drawn) was run?
Its T/C is 94 % of control.

What about the T/C (dose: 200.0 mg/kg/injection, schedule: Q04DX002 (ip), vehicle: saline with Tween-80) of the same molecule?
The T/C was 94 % of control.

Which T/C [1] does the source give for CCCNC(=O)Oc1cccc(NC(=O)CC)c1 here?
The T/C was 96 % of control.

And the T/C [2]?
Its T/C is 89 % of control.

How did the T/C (dose: 12.5 mg/kg/injection, schedule: Q01DX009 (ip), vehicle: olive oil, sesame oil, peanut oil) turn out when Oc1ccccc1/C=N/NC(=S)NC1CC2C=CC1C2 (stereo not drawn) was run?
The T/C was 98 % of control.

What about the T/C (dose: 25.0 mg/kg/injection, schedule: Q01DX009 (ip), vehicle: olive oil, sesame oil, peanut oil) of the same molecule?
The T/C was 97 % of control.

And the T/C (dose: 50.0 mg/kg/injection, schedule: Q01DX009 (ip), vehicle: olive oil, sesame oil, peanut oil)?
Its T/C is 98 % of control.

What about the T/C (dose: 100.0 mg/kg/injection, schedule: Q01DX009 (ip), vehicle: olive oil, sesame oil, peanut oil) of the same molecule?
Its T/C is 94 % of control.

What about the T/C (dose: 200.0 mg/kg/injection, schedule: Q01DX009 (ip), vehicle: olive oil, sesame oil, peanut oil) of the same molecule?
The T/C was 98 % of control.

What about the T/C (dose: 400.0 mg/kg/injection, schedule: Q01DX009 (ip), vehicle: olive oil, sesame oil, peanut oil) of the same molecule?
The T/C was 100 % of control.

How did the T/C (dose: 12.5 mg/kg/injection, schedule: Q01DX005 (ip), vehicle: distilled water + Tween-80) turn out when O=c1[nH]c2ncnc(N=Nc3ncnc4[nH]c(=O)[nH]c34)c2[nH]1 was run?
Its T/C is 98 % of control.

And the T/C (dose: 25.0 mg/kg/injection, schedule: Q01DX005 (ip), vehicle: distilled water + Tween-80)?
Its T/C is 89 % of control.

What about the T/C (dose: 50.0 mg/kg/injection, schedule: Q01DX005 (ip), vehicle: distilled water + Tween-80) of the same molecule?
Its T/C is 91 % of control.

What about the T/C (dose: 100.0 mg/kg/injection, schedule: Q01DX005 (ip), vehicle: distilled water + Tween-80) of the same molecule?
The T/C was 94 % of control.

And the T/C (dose: 200.0 mg/kg/injection, schedule: Q01DX005 (ip), vehicle: distilled water + Tween-80)?
The T/C was 96 % of control.

With CCOC(=O)Nc1cc(Cl)ccc1O as the molecule, how does the T/C [1] read?
The T/C was 103 % of control.

What about the T/C [3] of the same molecule?
The T/C was 92 % of control.

What about the T/C [4] of the same molecule?
The T/C was 104 % of control.

And the T/C [5]?
Its T/C is 103 % of control.

And the T/C [6]?
Its T/C is 88 % of control.

What does the source list for Cc1ccc(S(=O)(=O)N(CCC(=O)O)c2ccccc2)cc1?
T/C [3]: 101 % of control; T/C [5]: 97 % of control; T/C [6]: 98 % of control

Which results are given for Cc1ccc(N=C(N)NC#N)cc1?
T/C [1]: 91 % of control; T/C [4]: 93 % of control; T/C [2]: 91 % of control

For COCCC1(CN2c3ccccc3Sc3ccccc32)CCN(C)C1 (stereo not drawn), which T/C [7] is on record?
The T/C was 94 % of control.

What about the T/C [8] of the same molecule?
The T/C was 96 % of control.

With CCCNCCN(CC)CC as the molecule, how does the T/C (dose: 50.0 mg/kg/injection, schedule: Q01DX009 (ip), vehicle: saline) read?
The T/C was 96 % of control.

And the T/C (dose: 100.0 mg/kg/injection, schedule: Q01DX009 (ip), vehicle: saline)?
The T/C was 93 % of control.

What about the T/C [7] of the same molecule?
The T/C was 100 % of control.

What about the T/C (dose: 200.0 mg/kg/injection, schedule: Q01DX009 (ip), vehicle: saline) of the same molecule?
Its T/C is 96 % of control.

And the T/C [8]?
The T/C was 96 % of control.

What does the source list for CCCCCC(C)C(C)=O (stereo not drawn)?
T/C [1]: 101 % of control; T/C [4]: 106 % of control; T/C [2]: 92 % of control

How did the T/C (dose: 12.5 mg/kg/injection, schedule: Q01DX001 (ip), vehicle: saline with Tween-80) turn out when O=C1C(Cl)=C(NCc2ccccc2Cl)C(=O)c2ccccc21 was run?
The T/C was 108 % of control.

What about the T/C (dose: 25.0 mg/kg/injection, schedule: Q01DX001 (ip), vehicle: saline with Tween-80) of the same molecule?
Its T/C is 108 % of control.

Cc1c2cnccc2c(C)c2c1c1ccccc1n2CCO was tested. Which T/C [3] did it give?
The T/C was 123 % of control.

What about the T/C [5] of the same molecule?
Its T/C is 117 % of control.

What about the T/C [2] of the same molecule?
Its T/C is 170 % of control.

What about the T/C [6] of the same molecule?
Its T/C is 162 % of control.

Which results are given for c1cc[n+](Cc2ccc3ccccc3c2)c(C2OCCO2)c1?
T/C (dose: 5.0 mg/kg/injection, schedule: Q01DX009 (ip), vehicle: saline): 102 % of control; T/C (dose: 10.0 mg/kg/injection, schedule: Q01DX009 (ip), vehicle: saline): 102 % of control; T/C (dose: 20.0 mg/kg/injection, schedule: Q01DX009 (ip), vehicle: saline): 105 % of control

With Nc1ccc(C(=O)CCCN2CCCCC2)cc1 as the molecule, how does the T/C (dose: 12.5 mg/kg/injection, schedule: Q04DX003 (ip), vehicle: saline) read?
The T/C was 107 % of control.

What about the T/C (dose: 25.0 mg/kg/injection, schedule: Q04DX003 (ip), vehicle: saline) of the same molecule?
The T/C was 95 % of control.

And the T/C (dose: 50.0 mg/kg/injection, schedule: Q04DX003 (ip), vehicle: saline)?
Its T/C is 107 % of control.
